Laboratory results reported in US10501514B2, “Cyclic galanin-analogs and uses thereof” (LanthioPep B.V., priority 2015, dated 2019).
Read-outs that look alike come from different tables or passages of the source.

Columns and labels:
GalR1 [1] = molecular target: T1, GalR1 (Homo sapiens, UniProt P47211)
T1 sequence (P47211 1-349): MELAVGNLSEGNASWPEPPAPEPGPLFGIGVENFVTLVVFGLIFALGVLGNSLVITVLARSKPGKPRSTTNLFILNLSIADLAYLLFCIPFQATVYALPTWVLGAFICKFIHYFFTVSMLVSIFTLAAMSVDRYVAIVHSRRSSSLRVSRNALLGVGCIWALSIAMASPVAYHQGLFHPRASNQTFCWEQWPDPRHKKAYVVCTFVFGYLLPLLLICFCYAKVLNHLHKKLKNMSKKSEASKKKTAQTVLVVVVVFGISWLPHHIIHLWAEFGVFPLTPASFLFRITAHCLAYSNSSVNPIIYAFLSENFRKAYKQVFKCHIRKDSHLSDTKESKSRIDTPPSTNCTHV
Protocol: (§1) The biological activity of the (lanthi)galanins was determined in CHO-K1 cell lines that express either the GalR1, or GalR2 receptor. Activity measurements were performed using commercial kits from DiscoverX for determining arrestin recruitment (GalR1, GalR2) and inhibition of cAMP synthesis (GalR1). In addition, HEK293 cell lines that express the GalR2 receptor have been used for methods from Molecular Probes to measure calcium efflux (GalR2).
(§2) ND indicates ‘not determined’.
(§3) Peptide was dissolved in 0.3% ammonia. Peptides were incubated o/n at 37° C. for the introduction of the lanthionine via base assisted sulfur extrusion of the disulfide bridged peptide. […] Different isomers were purified and lyophilized. Dry peptides were dissolved in 100 mM phosphate buffer pH=7.6 and peptides were incubated o/n at 50° C. After HPLC purification peptides with a pE formation were selected and used in the different Galanin receptor activation assays.

[2] = system: Galanin receptor (GalR1, GalR2); assay: Galanin receptor activation assays, overall statements in words; type: cell-based; conditions: overall statement on galanin receptor activation
Protocol: as §1
Peptide was dissolved in 0.3% ammonia. Peptides were incubated o/n at 37° C. for the introduction of the lanthionine via base assisted sulfur extrusion of the disulfide bridged peptide. Different isomers could be isolated by HPLC applying the same method as was used as for the biologically produced peptides. Different isomers were purified and lyophilized. Dry peptides were dissolved in 100 mM phosphate buffer pH=7.6 and peptides were incubated o/n at 50° C. After HPLC purification peptides with a pE formation were selected and used in the different Galanin receptor activation assays.

GalR1 [3] = molecular target: T1, GalR1; assay: inhibition of cAMP synthesis in CHO-K1 cells expressing GalR1 (DiscoverX kit); type: cell-based; design: host or cells: CHO-K1; conditions: Table 2; variants chemically obtained by base-assisted sulfur extrusion; 'no' wraps to 'activity' = no activity
Protocol: as §1, §2, §3

GalR2 = molecular target: T2, GalR2 (Homo sapiens, UniProt O43603); type: cell-based
T2 construct: expressed in transfected cells; host or cells: HEK293
T2 sequence (O43603 1-387): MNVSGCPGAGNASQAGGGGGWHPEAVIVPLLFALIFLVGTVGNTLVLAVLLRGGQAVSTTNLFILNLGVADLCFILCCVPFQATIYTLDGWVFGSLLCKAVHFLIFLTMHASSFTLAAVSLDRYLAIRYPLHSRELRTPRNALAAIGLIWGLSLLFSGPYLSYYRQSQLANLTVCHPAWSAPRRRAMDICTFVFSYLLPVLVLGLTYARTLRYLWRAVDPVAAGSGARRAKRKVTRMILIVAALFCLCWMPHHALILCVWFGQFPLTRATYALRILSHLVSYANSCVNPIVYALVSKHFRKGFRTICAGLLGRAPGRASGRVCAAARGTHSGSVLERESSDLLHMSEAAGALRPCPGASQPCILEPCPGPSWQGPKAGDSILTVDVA
Protocol: as §2
Peptide was dissolved in 0.3% ammonia. […] Different isomers were purified and lyophilized.

Row | Ratio EC50s relative to Gal-(1-15), GalR1 β-Arrestin (GalR1 [1]) | activity, in words [2] | Ratio EC50s relative to Gal-(1-15), GalR1 cAMP inhibition (GalR1 [3]) | Ratio EC50s relative to Gal-(1-15), GalR2 Ca efflux (GalR2) | Ratio EC50s relative to Gal-(1-15), GalR2 β-Arrestin (GalR2) | Ratio EC50s relative to Gal-(1-15), GalR1 β-Arrestin (GalR1 [1]; Table 2, variants chemically obtained by base-assisted sulfur extrusion, 'no' wraps to 'activity' = no activity) | SMILES
1 | 720 | high activity | no | 2.6 | 3.8 |  | CC(C)C[C@@H]1NC(=O)[C@H](CC(C)C)NC(=O)[C@H](Cc2ccc(O)cc2)NC(=O)C(NC(=O)[C@H](C)NC(=O)[C@H](C)NC(=O)[C@H](CC(N)=O)NC(=O)[C@H](CC(C)C)NC(=O)[C@@H](NC(=O)[C@H](Cc2c[nH]c3ccccc23)NC(=O)[C@@H]2CCC(=O)N2)[C@@H](C)O)CSCC(C(=O)O)NC1=O (single isomer, unassigned) [4179 B, pEWTLNAAlanYLLlan]
2 |  |  | no | 94 |  | no | CC(C)C[C@@H]1NC(=O)[C@H](CC(C)C)NC(=O)[C@H](Cc2ccc(O)cc2)NC(=O)C(NC(=O)[C@H](C)NC(=O)[C@H](C)NC(=O)[C@H](CC(N)=O)NC(=O)[C@H](CC(C)C)NC(=O)[C@@H](NC(=O)[C@H](Cc2c[nH]c3ccccc23)NC(=O)[C@@H]2CCC(=O)N2)[C@@H](C)O)CSCC(C(=O)O)NC1=O (single isomer, unassigned) [4179 A, pEWTLNAAlanYLLlan]
3 | >1000 |  | no | 11 | 137 |  | CC(C)C[C@H](NC(=O)[C@H](CC(C)C)NC(=O)[C@H](Cc1ccc(O)cc1)NC(=O)CNC(=O)[C@H](C)NC(=O)[C@H](C)NC(=O)[C@H](CC(N)=O)NC(=O)[C@H](CC(C)C)NC(=O)[C@H](CC(N)=O)NC(=O)[C@H](Cc1c[nH]c2ccccc12)NC(=O)[C@@H]1CCC(=O)N1)C(=O)NCC(=O)N1CCC[C@H]1C(=O)NC1CSCC(C(=O)O)NC(=O)[C@H](C(C)C)NC(=O)[C@H](C)NC1=O (single isomer, unassigned) [4178 A]
4 | 39 | highly active | no | 1.4 | 2.3 |  | CC(C)C[C@H](NC(=O)[C@H](CC(C)C)NC(=O)[C@H](Cc1ccc(O)cc1)NC(=O)CNC(=O)[C@H](C)NC(=O)[C@H](C)NC(=O)[C@H](CC(N)=O)NC(=O)[C@H](CC(C)C)NC(=O)[C@H](CC(N)=O)NC(=O)[C@H](Cc1c[nH]c2ccccc12)NC(=O)[C@@H]1CCC(=O)N1)C(=O)NCC(=O)N1CCC[C@H]1C(=O)NC1CSCC(C(=O)O)NC(=O)[C@H](C(C)C)NC(=O)[C@H](C)NC1=O (single isomer, unassigned) [4178 B]
